Data from paper PMC9609801, “Nipecotic Acid Derivatives as Potent Agents against Neurodegeneration: A Preliminary Study” (Molecules, 2022).

Biological target: T1, soybean lipoxygenase (lipoxygenase type I-B) (Glycine max, UniProt P08170)
T1 construct: gene LOX1.1
T1 sequence (P08170 1-839): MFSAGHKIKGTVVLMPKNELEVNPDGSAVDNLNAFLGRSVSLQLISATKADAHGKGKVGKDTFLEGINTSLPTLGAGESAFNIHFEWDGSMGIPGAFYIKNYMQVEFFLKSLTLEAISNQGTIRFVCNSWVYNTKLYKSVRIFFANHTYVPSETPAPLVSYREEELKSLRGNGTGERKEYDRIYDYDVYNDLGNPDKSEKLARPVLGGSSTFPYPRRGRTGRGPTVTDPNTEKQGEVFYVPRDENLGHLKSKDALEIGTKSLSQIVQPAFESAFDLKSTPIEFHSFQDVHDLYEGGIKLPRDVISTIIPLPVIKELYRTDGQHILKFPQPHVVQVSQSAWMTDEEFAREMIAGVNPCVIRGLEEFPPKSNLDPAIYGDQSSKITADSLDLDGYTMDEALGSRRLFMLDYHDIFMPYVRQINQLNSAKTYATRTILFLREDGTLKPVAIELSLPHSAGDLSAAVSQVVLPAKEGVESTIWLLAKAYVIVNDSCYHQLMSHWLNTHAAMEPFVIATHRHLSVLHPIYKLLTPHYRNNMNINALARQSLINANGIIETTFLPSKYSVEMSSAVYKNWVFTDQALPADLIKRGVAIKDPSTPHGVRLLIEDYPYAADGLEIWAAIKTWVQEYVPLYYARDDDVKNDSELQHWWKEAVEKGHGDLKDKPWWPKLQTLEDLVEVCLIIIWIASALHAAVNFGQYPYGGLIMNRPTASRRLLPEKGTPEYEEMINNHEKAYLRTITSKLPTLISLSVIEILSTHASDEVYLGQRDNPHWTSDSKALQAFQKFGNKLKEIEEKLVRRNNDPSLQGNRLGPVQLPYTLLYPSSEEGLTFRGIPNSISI
Test: linoleate oxidation at […] nm, % inhibition at […] μΜ
Assay type: biochemical
Details: read-out: % Inhibition (LOX)

Compound | inhibition at 100 µM
CCOC(=O)C1CCCN(C(=O)/C=C/c2cc(C(C)(C)C)c(O)c(C(C)(C)C)c2)C1 (centres unmarked) [compound 2, (E)-Ethyl 1-(3-(3,5-di-tert-butyl-4-hydroxyphenyl)acryloyl)piperidine-3-carboxylate] | 33%
CCOC(=O)C1CCCN(C(=O)c2cc(C(C)(C)C)c(O)c(C(C)(C)C)c2)C1 (centres unmarked) [compound 1, Ethyl 1-(3,5-di-tert-butyl-4-hydroxybenzoyl)piperidine-3-carboxylate] | 31%
